Measurements from the supplement of paper PMC10307832.

How the values were obtained:
Assay in all cases: relative viability (nuclei count vs DMSO), 5 days (fraction); higher = more cells survive
Carfilzomib = compound: CC(C)C[C@H](NC(=O)[C@H](CCc1ccccc1)NC(=O)CN1CCOCC1)C(=O)N[C@@H](Cc1ccccc1)C(=O)N[C@@H](CC(C)C)C(=O)[C@@]1(C)CO1 [Carfilzomib]
Summary of the method: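 Lung cancer cell lines in 1536-well plates were kept overnight at 37 °C, then pinned with five library-drug doses (not always all listed) spaced by √10 on vehicle-anchored plates. After 5 days without medium change, cells were fixed, permeabilised and Hoechst-stained in one step, imaged at 4×, and nuclei were counted with MetaXpress. Viability is treated-well nuclei divided by vehicle-well nuclei, taken as the median over plates. Plates passed only with control CV below 25% and at least one doubling.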

Carfilzomib + Foretinib = compound: CC(C)C[C@H](NC(=O)[C@H](CCc1ccccc1)NC(=O)CN1CCOCC1)C(=O)N[C@@H](Cc1ccccc1)C(=O)N[C@@H](CC(C)C)C(=O)[C@@]1(C)CO1 [Carfilzomib] + COc1cc2c(Oc3ccc(NC(=O)C4(C(=O)Nc5ccc(F)cc5)CC4)cc3F)ccnc2cc1OCCCN1CCOCC1 [Foretinib] (partner 0.25 µM)
Summary of the method: (§1)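 Medians of duplicate plates are given as relative viability. That measure is the nuclei count in treated wells divided by the count in vehicle wells. Counts were taken on 4× images of lung cancer cell lines in 1536-well plates, 5 days after pin-tool dosing the day after seeding with one drug alone or a fixed anchor-drug dose plus five library-drug doses (not always all listed) in √10 steps.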

Crizotinib + OSI-027 = compound: C[C@@H](Oc1cc(-c2cnn(C3CCNCC3)c2)cnc1N)c1c(Cl)ccc(F)c1Cl [Crizotinib] + COc1cccc2cc(-c3nc([C@H]4CC[C@H](C(=O)O)CC4)n4ncnc(N)c34)[nH]c12 [OSI-027] (partner 0.5 µM)
Summary of the method: as §1

| Cell Line | relative viability (Carfilzomib; 0.001 µM) | relative viability (Carfilzomib; 0.003162 µM) | relative viability (Carfilzomib; 0.01 µM) | relative viability (Carfilzomib; 0.03162 µM) | relative viability (Carfilzomib; 0.1 µM) | relative viability (Carfilzomib + Foretinib; first compound 0.001 µM) | relative viability (Carfilzomib + Foretinib; first compound 0.003162 µM) | relative viability (Carfilzomib + Foretinib; first compound 0.01 µM) | relative viability (Carfilzomib + Foretinib; first compound 0.03162 µM) | relative viability (Carfilzomib + Foretinib; first compound 0.1 µM) | relative viability (Crizotinib + OSI-027; first compound 0.01 µM) | relative viability (Crizotinib + OSI-027; first compound 0.03162 µM) | relative viability (Crizotinib + OSI-027; first compound 0.1 µM) | relative viability (Crizotinib + OSI-027; first compound 0.3162 µM) | relative viability (Crizotinib + OSI-027; first compound 1 µM) |
| --- | --- | --- | --- | --- | --- | --- | --- | --- | --- | --- | --- | --- | --- | --- | --- |
| NCI-H520 | 0.994 | 1.06 | 0.782 | 0.187 | 0.199 | 0.781 | 0.999 | 0.695 | 0.17 | 0.203 | 0.272 | 0.295 | 0.24 | 0.27 | 0.258 |
| ChaGo-K-1 | 0.884 | 1.05 | 1.01 | 0.864 | 0.304 | 0.941 | 0.991 | 0.859 | 0.62 | 0.172 | 0.438 | 0.675 | 0.502 | 0.435 | 0.53 |
| NCI-H838 | 0.982 | 1.05 | 0.951 | 0.875 | 0.151 | 1.06 | 1.12 | 1.15 | 0.974 | 0.131 | 0.348 | 0.369 | 0.409 | 0.393 | 0.392 |
| NCI-H2126 | 0.994 | 1.07 | 1.03 | 0.93 | 0.568 | 1.2 | 1.3 | 1.2 | 1.12 | 0.48 | 0.638 | 0.7 | 0.714 | 0.654 | 0.621 |
| HCC-366 | 0.992 | 1.02 | 1.01 | 1.05 | 0.0704 | 0.933 | 0.963 | 0.916 | 0.648 | 0.121 | 0.885 | 0.931 | 0.889 | – | 0.901 |
| NCI-H2085 | 1.02 | 1.03 | 0.962 | 0.547 | 0.323 | 0.909 | 0.925 | 0.829 | 0.249 | 0.226 | 0.552 | 0.985 | 0.66 | – | 0.748 |
| LU99A | 0.991 | 1.06 | 0.982 | 0.893 | 0.433 | 0.943 | 0.772 | 0.847 | 0.565 | 0.246 | 0.304 | 0.319 | 0.294 | 0.259 | 0.275 |
| NCI-H1944 | 0.907 | 1.03 | 0.927 | 1 | 0.343 | 0.932 | 0.955 | 0.949 | 0.931 | 0.337 | 0.396 | 0.421 | 0.402 | 0.391 | 0.397 |
| NCI-H3122 | 1.03 | 1.05 | 1.03 | 0.978 | 0.455 | 0.948 | 0.992 | 0.92 | 0.781 | 0.318 | 0.896 | 0.909 | 0.79 | 0.218 | 0.16 |
| LCLC-97TM1 | 0.907 | 1.07 | 0.999 | 0.368 | 0.0609 | 0.958 | 0.874 | 0.893 | 0.529 | 0.25 | 0.506 | 0.457 | 0.462 | 0.486 | 0.354 |
| LXF-289 | 0.992 | 1.04 | 1.02 | 0.371 | 0.104 | 1 | 0.945 | 0.948 | 0.464 | 0.0789 | 0.769 | 0.809 | 0.758 | 0.489 | 0.877 |
| HCC-78 | 0.839 | 1.09 | 1.07 | 0.662 | 0.267 | 0.541 | 0.576 | 0.581 | 0.571 | 0.322 | – | 0.365 | 0.29 | 0.307 | 0.34 |
| NCI-H2405 | 0.704 | 1.15 | 1.1 | 0.8 | 0.277 | – | 1.06 | 1.07 | 1.07 | 0.305 | 0.636 | 0.605 | 0.587 | 0.669 | 0.593 |
| NCI-H727 | 0.886 | 0.998 | 1.12 | 0.698 | 0.423 | 0.758 | 0.891 | 0.996 | 0.617 | 0.397 | – | 0.561 | 0.774 | – | 0.551 |
| LC-2-ad | 1.04 | 1.16 | 1.03 | 0.473 | 0.226 | 0.881 | 1.01 | 1.08 | 0.903 | 0.221 | 0.761 | 0.974 | 0.96 | 0.612 | 0.705 |
